Each compound was assayed against T1, ScNsrR ([4Fe-4S] NsrR) (Streptomyces coelicolor, UniProt Q9L132) (assay: CD titration at […] nm, single-site fit).
T1 construct: untagged native full-length protein from pNsrR, E. coli BL21λDE3, anaerobic heparin purification, homodimer (~37 kDa by gel filtration); C-terminal His6 form (apo 17,474 Da) used for native MS
Format: binding

T1 sequence (Q9L132 whole entry): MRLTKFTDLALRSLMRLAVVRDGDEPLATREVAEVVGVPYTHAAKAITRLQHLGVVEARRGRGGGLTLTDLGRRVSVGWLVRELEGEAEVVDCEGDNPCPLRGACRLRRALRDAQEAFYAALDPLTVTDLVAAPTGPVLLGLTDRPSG

Kd [mM] | SMILES
9.9 | OC(CS)C(O)CS (stereo not drawn) [dithiothreitol]
~1.9 | CCS [thioethane]
~3.8 | OCCS [β-mercaptoethanol]

From PMC4432287, “NsrR from Streptomyces coelicolor Is a Nitric Oxide-sensing [4Fe-4S] Cluster Protein with a Specialized Regulatory Function” (The Journal of Biological Chemistry, 2015)
